Experimental data reported in US8722704B2, “Modulators of ATP-binding cassette-transporters” (Vertex Pharmaceuticals Incorporated, priority 2007, dated 2014).

Biological target: T1, ΔF508-CFTR (Homo sapiens, UniProt P13569, DEL508-508)
T1 construct: expressed in transfected cells
Test: Assays for detecting and measuring ΔF508-CFTR correction properties (membrane potential optical assay; Table 3 does not say which assay)
Format: cell-based
Settings: IC50/EC50 bins; NIH3T3 mouse fibroblasts stably expressing ΔF508-CFTR; read-out: Binned EC50
Text: The optical membrane potential assay utilized voltage-sensitive FRET sensors described by Gonzalez and Tsien (See Gonzalez, J. E. and R. Y. Tsien (1995) “Voltage sensing by fluorescence resonance energy transfer in single cells” Biophys J 69(4): 1272-80, and Gonzalez, J. E. and R. Y. Tsien (1997) “Improved indicators of cell membrane potential that use fluorescence resonance energy transfer” Chem Biol 4(4): 269-77) in combination with instrumentation for measuring fluorescence changes such as the Voltage/Ion Probe Reader (VIPR) (See Gonzalez, J. E., K. Oades, et al. (1999) “Cell-based assays and instrumentation for screening ion-channel targets” Drug Discov Today 4(9): 431-439).
These voltage sensitive assays are based on the change in fluorescence resonant energy transfer (FRET) between the membrane-soluble, voltage-sensitive dye, DiSBAC2(3), and a fluorescent phospholipid, CC2-DMPE, which is attached to the outer leaflet of the plasma membrane and acts as a FRET donor. Changes in membrane potential (Vm) cause the negatively charged DiSBAC2(3) to redistribute across the plasma membrane and the amount of energy transfer from CC2-DMPE changes accordingly. The changes in fluorescence emission were monitored using VIPR™ II, which is an integrated liquid handler and fluorescent detector designed to conduct cell-based screens in 96- or 384-well microtiter plates.
To identify small molecules that correct the trafficking defect associated with ΔF508-CFTR; a single-addition HTS assay format was developed. The cells were incubated in serum-free medium for 16 hrs at 37° C. in the presence or absence (negative control) of test compound. As a positive control, cells plated in 384-well plates were incubated for 16 hrs at 27° C. to “temperature-correct” ΔF508-CFTR. The cells were subsequently rinsed 3× with Krebs Ringers solution and loaded with the voltage-sensitive dyes. To activate ΔF508-CFTR, 10 μM forskolin and the CFTR potentiator, genistein (20 μM), were added along with Cl^−-free medium to each well. The addition of Cl^−-free medium promoted Cl^− efflux in response to ΔF508-CFTR activation and the resulting membrane depolarization was optically monitored using the FRET-based voltage-sensor dyes. […]
3. Solutions • Bath Solution #1: (in mM) NaCl 160, KCl 4.5, CaCl2 2, MgCl2 1, HEPES 10, pH 7.4 with NaOH. • Chloride-free bath solution: Chloride salts in Bath Solution #1 are substituted with gluconate salts. • CC2-DMPE: Prepared as a 10 mM stock solution in DMSO and stored at −20° C. • DiSBAC2(3): Prepared as a 10 mM stock in DMSO and stored at −20° C.
NIH3T3 mouse fibroblasts stably expressing ΔF508-CFTR are used for optical measurements of membrane potential. The cells are maintained at 37° C. in 5% CO2 and 90% humidity in Dulbecco's modified Eagle's medium supplemented with 2 mM glutamine, 10% fetal bovine serum, 1×NEAA, β-ME, 1×pen/strep, and 25 mM HEPES in 175 cm^2 culture flasks. For all optical assays, the cells were seeded at 30,000/well in 384-well matrigel-coated plates and cultured for 2 hrs at 37° C. before culturing at 27° C. for 24 hrs for the potentiator assay. For the correction assays, the cells are cultured at 27° C. or 37° C. with and without compounds for 16-24 hours.

T1 sequence (P13569 with tags, fused parts or gaps DEL508-508): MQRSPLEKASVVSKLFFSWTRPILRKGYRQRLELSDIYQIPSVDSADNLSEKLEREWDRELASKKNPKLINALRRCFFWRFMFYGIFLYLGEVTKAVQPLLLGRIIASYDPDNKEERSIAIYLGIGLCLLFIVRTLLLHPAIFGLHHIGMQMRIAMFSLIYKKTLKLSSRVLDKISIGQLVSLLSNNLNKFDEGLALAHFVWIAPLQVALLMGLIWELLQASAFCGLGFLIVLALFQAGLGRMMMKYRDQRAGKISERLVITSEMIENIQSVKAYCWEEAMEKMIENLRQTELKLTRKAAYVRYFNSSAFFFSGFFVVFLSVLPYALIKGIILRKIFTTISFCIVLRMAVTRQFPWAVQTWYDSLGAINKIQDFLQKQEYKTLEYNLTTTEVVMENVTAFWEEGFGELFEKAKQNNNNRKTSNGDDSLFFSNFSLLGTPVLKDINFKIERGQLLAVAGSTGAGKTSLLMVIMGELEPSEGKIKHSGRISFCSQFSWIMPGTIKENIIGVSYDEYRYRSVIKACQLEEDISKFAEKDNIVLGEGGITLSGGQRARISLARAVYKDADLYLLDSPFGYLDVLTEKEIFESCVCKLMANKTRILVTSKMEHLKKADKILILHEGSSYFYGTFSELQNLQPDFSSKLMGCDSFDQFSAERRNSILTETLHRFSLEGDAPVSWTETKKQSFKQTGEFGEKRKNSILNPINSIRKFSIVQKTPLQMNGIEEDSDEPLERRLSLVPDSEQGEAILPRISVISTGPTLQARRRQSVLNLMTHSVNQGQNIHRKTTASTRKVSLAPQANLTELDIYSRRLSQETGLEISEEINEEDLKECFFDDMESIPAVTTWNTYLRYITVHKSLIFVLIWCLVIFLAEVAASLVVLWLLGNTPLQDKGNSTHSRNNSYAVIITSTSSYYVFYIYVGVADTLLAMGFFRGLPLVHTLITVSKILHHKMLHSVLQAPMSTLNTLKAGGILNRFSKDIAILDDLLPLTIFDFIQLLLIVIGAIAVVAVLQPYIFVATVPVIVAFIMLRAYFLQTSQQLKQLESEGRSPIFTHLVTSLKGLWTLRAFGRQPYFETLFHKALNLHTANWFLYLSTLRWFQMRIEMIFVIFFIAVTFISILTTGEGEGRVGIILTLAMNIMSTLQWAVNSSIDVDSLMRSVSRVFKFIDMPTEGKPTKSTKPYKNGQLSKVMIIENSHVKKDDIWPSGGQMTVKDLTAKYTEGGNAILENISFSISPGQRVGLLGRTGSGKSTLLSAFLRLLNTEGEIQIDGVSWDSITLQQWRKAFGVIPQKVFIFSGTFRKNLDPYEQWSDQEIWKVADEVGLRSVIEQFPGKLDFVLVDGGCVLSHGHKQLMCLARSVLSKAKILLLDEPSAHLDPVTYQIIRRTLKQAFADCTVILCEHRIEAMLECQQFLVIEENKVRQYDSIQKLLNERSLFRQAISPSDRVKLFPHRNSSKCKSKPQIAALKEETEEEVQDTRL

EC50 [nM]	Structure (SMILES)
≤ 2000	O=C1NCc2ccc(-c3nc(NC(=O)C4(c5ccc6c(c5)OC(F)(F)O6)CC4)cc4ccccc34)cc21 [Compound 15, 1-(2,2-Difluorobenzo[d][1,3]dioxol-5-yl)-N-(1-(3-oxoisoindolin-5-yl)isoquinolin-3-yl)cyclopropanecarboxamide]
≤ 2000	O=C(Nc1cc2ccccc2c(-c2ccc3[nH]ccc3c2)n1)C1(c2ccc3c(c2)OC(F)(F)O3)CC1 [Compound 16, N-(1-(1H-Indol-5-yl)isoquinolin-3-yl)-1-(2,2-difluorobenzo[d][1,3]dioxol-5-yl)cyclopropanecarboxamide]
≤ 2000	O=C(Nc1cc2ccccc2c(-c2ccc(=O)[nH]c2)n1)C1(c2ccc3c(c2)OC(F)(F)O3)CC1 [Compound 17, 1-(2,2-Difluorobenzo[d][1,3]dioxol-5-yl)-N-(1-(6-oxo-1,6-dihydropyridin-3-yl)isoquinolin-3-yl)cyclopropanecarboxamide]
≤ 2000	COc1ccc(C2(C(=O)Nc3cc4ccccc4c(N4CCOCC4)n3)CC2)cc1 [Compound 18, 1-(4-methoxyphenyl)-N-(1-morpholinoisoquinolin-3-yl)cyclopropanecarboxamide]
≤ 2000	CN(C)CCOC(=O)c1cccc(-c2nc(NC(=O)C3(c4ccc5c(c4)OC(F)(F)O5)CC3)cc3ccccc23)c1 [Compound 19, 2-(Dimethylamino)ethyl 3-(3-(1-(2,2-difluorobenzo[d][1,3]dioxol-5-yl)cyclopropanecarboxamido)isoquinolin-1-yl)benzoate]
≤ 2000	COc1ccc(C2(C(=O)Nc3cc4ccccc4c(N4CCC(c5ccccc5)CC4)n3)CC2)cc1 [Compound 20, 1-(4-methoxyphenyl)-N-(1-(4-phenylpiperidin-1-yl)isoquinolin-3-yl)cyclopropanecarboxamide]
≤ 2000	COc1ccc(C2(C(=O)Nc3cc4ccccc4c(N4CCNC(=O)C4)n3)CC2)cc1 [Compound 21]
≤ 2000	NC(=O)c1cccc(-c2nc(NC(=O)C3(c4ccc5c(c4)OC(F)(F)O5)CC3)cc3ccccc23)c1 [Compound 22, 3-(3-(1-(2,2-Difluorobenzo[d][1,3]dioxol-5-yl)cyclopropanecarboxamido)isoquinolin-1-yl)benzamide]
≤ 2000	COc1ccc(C2(C(=O)Nc3cc4ccccc4c(N4CCCCC4)n3)CC2)cc1 [Compound 23, 1-(4-methoxyphenyl)-N-(1-(piperidin-1-yl)isoquinolin-3-yl)cyclopropanecarboxamide]
≤ 2000	CN1CCN(C(=O)c2ccc(-c3nc(NC(=O)C4(c5ccc6c(c5)OC(F)(F)O6)CC4)cc4ccccc34)cc2)CC1 [Compound 24, 1-(2,2-difluorobenzo[d][1,3]dioxol-5-yl)-N-(1-(4-(4-methylpiperazine-1-carbonyl)phenyl)isoquinolin-3-yl)cyclopropanecarboxamide]
≤ 2000	COc1ccc(-c2nc(NC(=O)C3(c4ccc5c(c4)OC(F)(F)O5)CC3)cc3ccccc23)cn1 [Compound 25, 1-(2,2-Difluorobenzo[d][1,3]dioxol-5-yl)-N-(1-(6-methoxypyridin-3-yl)isoquinolin-3-yl)cyclopropanecarboxamide]
≤ 2000	CNS(=O)(=O)c1ccc(-c2nc(NC(=O)C3(c4ccc5c(c4)OC(F)(F)O5)CC3)cc3ccccc23)c(C)c1 [Compound 26, 1-(2,2-difluorobenzo[d][1,3]dioxol-5-yl)-N-(1-(2-methyl-4-(N-methylsulfamoyl)phenyl)isoquinolin-3-yl)cyclopropanecarboxamide]
≤ 2000	O=C(Nc1cc2ccccc2c(-c2ccc(CO)cc2)n1)C1(c2ccc3c(c2)OC(F)(F)O3)CC1 [Compound 27, 1-(2,2-Difluorobenzo[d][1,3]dioxol-5-yl)-N-(1-(4-(hydroxymethyl)phenyl)isoquinolin-3-yl)cyclopropanecarboxamide]
≤ 2000	C[N+](C)(C)CCOC(=O)c1cccc(-c2nc(NC(=O)C3(c4ccc5c(c4)OC(F)(F)O5)CC3)cc3ccccc23)c1 [Compound 28, 2-(3-(3-(1-(2,2-Difluorobenzo[d][1,3]dioxol-5-yl)cyclopropanecarboxamido)isoquinolin-1-yl)benzoyloxy)-N,N,N-trimethylethanaminium chloride]
